Results published in ChEMBL document CHEMBL3045355, “Synthesis of a New Series of 4-Aryl-1,4-Dihydropyridines with Calcium Channel Blocking and Vasodilatory Activity” (Med Chem Res, 2012).

What was measured:
[1] = molecular target: T1, Voltage-gated L-type calcium channel (Rattus norvegicus, UniProt P22002+Q02485+P27732); assay: Inhibition of L-type calcium channel in Rattus norvegicus Wistar (rat) thoracic aorta assessed as relaxation of KCl-induced vasoconstriction after 30 min relative to control; format: tissue-based
[2] = molecular target: T1, Voltage-gated L-type calcium channel; assay: Inhibition of L-type calcium channel in neonatal rat cortical neurons assessed as inhibition of veratridine-induced intracellular calcium level incubated for 30 min followed by veratridine induction for 2 min by fluorimetric analysis; format: cell-based
[3] = molecular target: T1, Voltage-gated L-type calcium channel; assay: Inhibition of L-type calcium channel in Rattus norvegicus Wistar (rat) thoracic aorta assessed as relaxation of phenylephrine-induced vasoconstriction after 30 min relative to control; format: tissue-based

Row | SMILES | IC50 [1] | pIC50 [1] | IC50 [2] | IC50 [3] | pIC50 [3]
1 | CCOC(=O)C1=C(C)NC(C)=C(C(=O)OC)C1c1cccc(OCC(=O)N2CCCCC2)c1 (configuration not stated) | 1.25 µM | 5.9 |  |  | 
2 | CCOC(=O)C1=C(C)NC(C)=C(C(=O)OC)C1c1ccc(OCC(=O)OC)c(OC)c1 (configuration not stated) | 12.8 µM | 4.89 |  |  | 
3 | CCOC(=O)C1=C(C)NC(C)=C(C(=O)OC)C1c1ccc(OCC(=O)N2CCCCC2)c(OC)c1 (configuration not stated) | 3.89 µM | 5.41 |  |  | 
4 | COC(=O)C1=C(C)NC(C)=C(C(=O)OC)C1c1ccc(OCC(=O)N2CCCC2)c(OC)c1 |  |  | 5.6 µM | 0.83 µM | 6.08
5 | COC(=O)C1=C(C)NC(C)=C(C(=O)OC)C1c1ccc(OCC(=O)N2CCCCC2)c(OC)c1 |  |  | 10 µM |  | 
6 | COC(=O)C1=C(C)NC(C)=C(C(=O)OC)C1c1ccc(OCC(=O)N2CCN(C)CC2)c(OC)c1 |  |  | 9.1 µM | 6.91 µM | 5.16
7 | COC(=O)C1=C(C)NC(C)=C(C(=O)OC)C1c1ccc(OCC(=O)n2ccnc2)c(OC)c1 |  |  | 10.1 µM |  | 
8 | COC(=O)C1=C(C)NC(C)=C(C(=O)OC)C1c1ccc(OCC(=O)NC(C)(C)C)c(OC)c1 |  |  | 2.5 µM |  | 
9 | COC(=O)C1=C(C)NC(C)=C(C(=O)OC)C1c1ccc(OCC(=O)N2CCCC(C)C2)c(OC)c1 (configuration not stated) |  |  | 10 µM | 1.73 µM | 5.76
10 | COC(=O)COc1ccc(C2C(C(=O)OC)=C(C)NC(C)=C2C(=O)OC)cc1 |  |  | 2.1 µM |  | 
11 | COC(=O)COc1cccc(C2C(C(=O)OC)=C(C)NC(C)=C2C(=O)OC)c1 |  |  | 10 µM | 1.44 µM | 5.84
12 | COC(=O)C1=C(C)NC(C)=C(C(=O)OC)C1c1cccc(OCC(=O)N2CCOCC2)c1 |  |  | 9.9 µM | 0.64 µM | 6.19
13 | COC(=O)C1=C(C)NC(C)=C(C(=O)OC)C1c1cccc(OCC(=O)N2CCCC2)c1 |  |  | 3.6 µM | 4.57 µM | 5.34
14 | COC(=O)C1=C(C)NC(C)=C(C(=O)OC)C1c1cccc(OCC(=O)N2CCCCC2)c1 |  |  | 10 µM |  | 
15 | COC(=O)C1=C(C)NC(C)=C(C(=O)OC)C1c1cccc(OCC(=O)N2CCN(C)CC2)c1 |  |  | 10 µM | 9.54 µM | 5.02
